From patent publication US20100255469A1, “Cell monitoring and molecular analysis” (priority 2008, published 2010)

Experiments:
[1] = system: HT29 cells; test: qPCR with RealTime Ready Human Cell Cycle Panel, 96 in paclitaxel-treated HT29 cells; type: cell-based; settings: 50 nM paclitaxel vs DMSO control; time points 1, 2, 4, 24 hours
Method: (§1) Cells were harvested for RNA isolation after one, two, four and 24 hours. Cell number was determined and portions of 10^6 cells were used for RNA isolation applying the High Pure RNA Isolation Kit following the manufacturer's instruction.
(§2) From each RNA population 1 μg total RNA was used for cDNA synthesis with the Transcriptor First Strand cDNA Synthesis Kit.
(§3) The total yield of one cDNA synthesis reaction starting from 1 μg RNA was used as template for each RealTime ready Human Apoptosis Panel, 96 or RealTime ready Human Cell Cycle Panel, 96. Total PCR reaction volume per well was 20 μl with Light Cycler480 Probes Master. The easy-to-use macro for the panel containing PCR protocol, sample setup and analysis was applied on LIGHTCYCLER480 software 1.5.
(§4) Four time points, one, two, four and twenty four hours were selected for qPCR runs on the LIGHTCYCLER480 system using the RealTime Ready Human Apoptosis Panel, 96 (FIG. 5) and the RealTime Ready Human Cell Cycle Panel, 96 (FIG. 7). Gene names corresponding to the numbers that can be found in the package insert of both panels (Roche Applied Science).

[2] = system: HT29 cells; test: Cell Index monitoring (XCELLIGENCE RTCA SP) of HT29 cells treated with paclitaxel; type: cell-based; settings: 50 nM paclitaxel
Method: HT29 cells were cultivated in parallel in McCoy's medium in either T75 cell culture bottles (for RNA isolation) or an E-Plate 96 (for cell growth monitoring) and in three regular microtiter plates (for WST-1 assay).
The surface of the bottom of a single well of the E-Plate 96 is given with approx. 0.2 cm^2. T75 cell culture bottles have 75 cm^2.
After 24 hours incubation at 37° C. paclitaxel was added to a final concentration of 50 nM. As the 2 mM paclitaxel stock was dissolved in DMSO, control cells were treated with DMSO to a final concentration of 0.0025%. In addition cells treated with medium only were monitored in parallel.
All cells were further incubated at 37° C. The growth of the cells was monitored real time on the RTCA SP Station over the whole course of the experiment (FIG. 3).
To ensure that untreated cells are within the early logarithmic growth phase at the time point of paclitaxel treatment, cells were treated with 50 nM paclitaxel at approx. ⅓ of their maximum Cell Index at 20 hours after seeding.

[3] = system: HT29 cells; test: qPCR with RealTime Ready Human Apoptosis Panel, 96 in paclitaxel-treated HT29 cells; type: cell-based
Method: as §1, §2, §3, §4

[4] = system: MCF-7 cells; test: Gene expression profiling by q-RT-PCR (LIGHTCYCLER 480) of Paclitaxel-treated MCF-7 cells; type: cell-based, human
Method: We have performed gene expression profiling experiments of MCF-7 cells treated with Paclitaxel for a period of approximately 150 h. Within this example the gene expression of 20 different genes (gene accession numbers in brackets) were monitored:
We intended to determine and reproduce gene expression changes with time upon drug treatment, the majority of which had been observed and described before by others in an independent in vivo-study based on DNA microarray technique using ovarian carcinoma xenografts ([…], M., R., et al., Molecular Cancer Therapeutics 3(2) (2004) 111-121; Boschke, C., B., et al., Uni Tubingen (2008)). The time points for our pharmacokinetic screens have been chosen depending on cellular changes in response to Paclitaxel-treatment which were monitored by impedance-based real time cell analysis using the XCELLIGENCE system. Independent from the quality and extent of these cellular changes we harvested non-treated controls and drug-treated cells at their appropriate time points (6, 24, 72 and 147 h), isolated the mRNA by means of the MAGNA PURE System, reverse transcribed the total mRNA into cDNA using a common Thermocycler, pooled and diluted the cDNA samples and amplified the predefined set of specific genes as well as house keeping genes in triplicates by q-RT-PCR making use of the LIGHTCYCLER 480 System. Necessary primer pairs were synthesized and tested for functionality in-house in combination with a bioinformatically determined UPL probe (data not shown). The LIGHTCYCLER software 1.5 allowed the relative quantification of the selected mRNA abundance under Paclitaxel-treated conditions with respect to the corresponding non-treated situation (reference). Results are corrected by the values determined for internal standard genes (stably expressed house keeping genes), like β-Actin, β-Globin and GAPDH. […]

[5] = system: MCF-7 cells; test: Impedance-based real time cell analysis (XCELLIGENCE) of MCF-7 cells treated with Paclitaxel; parameters: species or system human; settings: 12.5 nM Paclitaxel
Source text: In this example, we have investigated gene expression profiles of human MCF-7 breast cancer cells (human adenocarcinoma breast cancer cell line) obtained from ATCC (passage number: 15, cell number: 5000 cells per well), maintained in MEM (32360, Gibco)+10% FCS (30-3702, PAN)+Na-Pyruvat (PO4-43100, PAN)+Nonessential amino acids (P08-32100, PAN) at time points that are indicated by changes in cell characteristics as visualized by changes of impedance (cell indices) measurements upon drug addition. Accordingly, gene expression profiles were determined at 6 h, 24 h, 72 h and 147 h upon Paclitaxel administration. […] It includes genes involved in various biological functions such as cell cycle regulation and cell proliferation, apoptosis, signal transduction and transcriptional regulation, fatty acid and sterol metabolism and IFN-mediated signaling (Bani, M., R., et al., Molecular Cancer Therapeutics 3(2) (2004) 111-121). With respect to the two time points (6 h and 24 h upon drug administration) microarray studies had been performed by other groups and we were able to reproduce 70% of their results (Bani, M., R., et al., Molecular Cancer Therapeutics 3(2) (2004) 111-121). In addition, we determined mRNA levels at two additional time points (72 h and 147 h upon drug administration) during prolonged drug exposure of cells.
Procedure: Seeding, Growth. […]
5000 MCF-7 cells were seeded per well and 24 h later treated with a final concentration of 12.5 nM Paclitaxel (dissolved in DMSO). […] The Paclitaxel concentration we applied in this experiment represents twice the IC50-value of this drug for MCF-7 cells and had been determined in an dose-response experiment (Paclitaxel titration) with the XCELLIGENCE system and an appropriate tool of the XCELLIGENCE software SP1.0.0.0807 (data not shown).

Compound: CC(=O)O[C@H]1C(=O)[C@@]2(C)[C@H]([C@H](OC(=O)c3ccccc3)[C@]3(O)C[C@H](OC(=O)[C@H](O)[C@@H](NC(=O)c4ccccc4)c4ccccc4)C(C)=C1C3(C)C)[C@]1(OC(C)=O)CO[C@@H]1C[C@@H]2O [Paclitaxel]
- time of most dramatic effects on cell cycle gene expression [1]: within the first four hours
- time after treatment to reach minimum Cell Index [2]: approx. 24 hours
- Cell Index (normalized) ([2]; 24 hours after treatment): zero
- Cell Index change ([2]; within the first hour after treatment): slightly increased
- number of genes significantly (more than 4 times) up/down regulated ([3]; 50 nM paclitaxel vs DMSO control, all time points compared): 6 genes
- time of most significant alteration of expression level of apoptosis related genes ([3]; 50 nM paclitaxel vs DMSO control, time points 1, 2, 4, 24 hours): within the first hour
- significant gene expression changes compared to DMSO control ([3]; two and four hours after paclitaxel treatment, 50 nM): no genes show significant expression changes
- gene expression changes of investigated genes ([4]; 6 h upon drug addition, 12.5 nM Paclitaxel, vs non-treated): only small changes in expression
- gene expression changes of selected genes (e.g. CDKN1A, FOS, PIG8, TOP2A, MADH2) ([4]; 24 h after Paclitaxel treatment, 12.5 nM): become more obvious
- gene expression changes (ISG15, IFITM1, BNIP3, SLUG, ARF-1, CDC2, PLAB, IDI1) ([4]; later stages (72 and 147 h) of Paclitaxel treatment, 12.5 nM): strongest gene expression changes
- time upon drug addition at which proliferation curve switches from descending to ascending course [5]: approximately 20 h
- course of proliferation curve (impedance / cell index) versus control ([5]; control 0.1% DMSO): lower impedance or cell index values
- time upon drug treatment at which proliferation curve again begins to descend ([5]; descent continues up to ca. 150 h): around 70 h
